Assays:
[1] = biological target: Aurora kinase C (Homo sapiens) (UniProt Q9UQB9); assay: Binding affinity to wild-type human full length AURKC (M1 to S275 residues) expressed in bacterial expression system assessed as residual binding level at 10 uM by Kinomescan method relative to control
[2] = biological target: Bone morphogenetic protein receptor type-1A (Homo sapiens) (UniProt P36894); assay: Binding affinity to wild-type human partial length BMPR1A (Q214 to I532 residues) expressed in bacterial expression system assessed as residual binding level at 10 uM by Kinomescan method relative to control
[3] = biological target: Bone morphogenetic protein receptor type-1B (Homo sapiens) (UniProt O00238); assay: Binding affinity to wild-type human partial length BMPR1B (D178 to L502 residues) expressed in mammalian expression system assessed as residual binding level at 10 uM by Kinomescan method relative to control
[4] = biological target: Calcium/calmodulin-dependent protein kinase type 1G (Homo sapiens) (UniProt Q96NX5); assay: Binding affinity to wild-type human partial length CAMK1G (M1 to A342 residues) expressed in bacterial expression system assessed as residual binding level at 10 uM by Kinomescan method relative to control
[5] = biological target: Calcium/calmodulin-dependent protein kinase type II subunit alpha (Homo sapiens) (UniProt Q9UQM7); assay: Binding affinity to wild-type human partial length CAMK2A (M1 to K328 residues) expressed in bacterial expression system assessed as residual binding level at 10 uM by Kinomescan method relative to control
[6] = biological target: Cyclin-dependent kinase 5 (Homo sapiens) (UniProt Q00535); assay: Binding affinity to wild-type human full length CDK5 (M1 to P292 residues) expressed in bacterial expression system assessed as residual binding level at 10 uM by Kinomescan method relative to control
[7] = biological target: Macrophage colony-stimulating factor 1 receptor (Homo sapiens) (UniProt P07333); assay: Binding affinity to wild-type human partial length CSF1R (I564 to S939 residues) expressed in bacterial expression system assessed as residual binding level at 10 uM by Kinomescan method relative to control
[8] = system: Epidermal growth factor receptor (Homo sapiens), P00533 [UNDEFINED MUTATION]; assay: Binding affinity to human partial length EGFR L747-S752del/P753S mutant expressed in bacterial expression system assessed as residual binding level at 10 uM by Kinomescan method relative to control
[9] = biological target: Ephrin type-A receptor 4 (Homo sapiens) (UniProt P54764); assay: Binding affinity to wild-type human partial length EPHA4 (T601 to R897 residues) expressed in bacterial expression system assessed as residual binding level at 10 uM by Kinomescan method relative to control
[10] = system: Fibroblast growth factor receptor 3 (Homo sapiens), P22607 [G697C]; assay: Binding affinity to human partial length FGFR3 G697C mutant (R442 to S771 residues) expressed in bacterial expression system assessed as residual binding level at 10 uM by Kinomescan method relative to control
[11] = biological target: Interleukin-1 receptor-associated kinase 4 (Homo sapiens) (UniProt Q9NWZ3); assay: Binding affinity to wild-type human partial length IRAK4 (M1 to S460 residues) expressed in mammalian expression system assessed as residual binding level at 10 uM by Kinomescan method relative to control
[12] = biological target: Leukocyte tyrosine kinase receptor (Homo sapiens) (UniProt P29376); assay: Binding affinity to wild-type human partial length LTK (P422 to S744 residues) expressed in bacterial expression system assessed as residual binding level at 10 uM by Kinomescan method relative to control
[13] = biological target: Mitogen-activated protein kinase kinase kinase 15 (Homo sapiens) (UniProt Q6ZN16); assay: Binding affinity to wild-type human partial length MAP3K15 (T625 to L932 residues) expressed in mammalian expression system assessed as residual binding level at 10 uM by Kinomescan method relative to control
[14] = biological target: Mitogen-activated protein kinase kinase kinase kinase 3 (Homo sapiens) (UniProt Q8IVH8); assay: Binding affinity to wild-type human partial length MAP4K3 (M1 to D301 residues) expressed in bacterial expression system assessed as residual binding level at 10 uM by Kinomescan method relative to control
[15] = biological target: Myosin light chain kinase (Homo sapiens) (UniProt Q32MK0); assay: Binding affinity to wild-type human partial length MLCK (D488 to K800 residues) expressed in bacterial expression system assessed as residual binding level at 10 uM by Kinomescan method relative to control
[16] = biological target: Serine/threonine-protein kinase 38 (Homo sapiens) (UniProt Q15208); assay: Binding affinity to wild-type human partial length NDR1 (N33 to E449 residues) expressed in mammalian expression system assessed as residual binding level at 10 uM by Kinomescan method relative to control
[17] = biological target: Serine/threonine-protein kinase 38-like (Homo sapiens) (UniProt Q9Y2H1); assay: Binding affinity to wild-type human partial length NDR2 (N34 to E447 residues) expressed in bacterial expression system assessed as residual binding level at 10 uM by Kinomescan method relative to control
[18] = biological target: Phosphatidylinositol 4-phosphate 3-kinase C2 domain-containing subunit beta (Homo sapiens) (UniProt O00750); assay: Binding affinity to wild-type human partial length PIK3C2B (M1 to L1634 residues) expressed in mammalian expression system assessed as residual binding level at 10 uM by Kinomescan method relative to control
[19] = biological target: Serine/threonine-protein kinase pim-1 (Homo sapiens) (UniProt P11309); assay: Binding affinity to wild-type human partial length PIM1 (A15 to K313 residues) expressed in bacterial expression system assessed as residual binding level at 10 uM by Kinomescan method relative to control
[20] = biological target: Ribosomal protein S6 kinase alpha-3 (Homo sapiens) (UniProt P51812); assay: Binding affinity to wild-type human partial length N-terminal RSK2 kinase domain 1 (M1 to D394 residues) expressed in mammalian expression system assessed as residual binding level at 10 uM by Kinomescan method relative to control
[21] = biological target: Uncharacterized serine/threonine-protein kinase SBK3 (Homo sapiens) (UniProt P0C264); assay: Binding affinity to wild-type human partial length SgK110 (L22 to R329 residues) expressed in bacterial expression system assessed as residual binding level at 10 uM by Kinomescan method relative to control
[22] = biological target: Tyrosine-protein kinase Srms (Homo sapiens) (UniProt Q9H3Y6); assay: Binding affinity to wild-type human partial length SRMS (L208 to P488 residues) expressed in mammalian expression system assessed as residual binding level at 10 uM by Kinomescan method relative to control
[23] = biological target: Tyrosine-protein kinase receptor Tie-1 (Homo sapiens) (UniProt P35590); assay: Binding affinity to wild-type human partial length TIE1 (T819 to A1138 residues) expressed in bacterial expression system assessed as residual binding level at 10 uM by Kinomescan method relative to control
[24] = biological target: Serine/threonine-protein kinase WNK3 (Homo sapiens) (UniProt Q9BYP7); assay: Binding affinity to wild-type human partial length WNK3 (M1 to D434 residues) expressed in mammalian expression system assessed as residual binding level at 10 uM by Kinomescan method relative to control

O=C(Nc1cc(-c2cn(CCNc3c4c(nc5ccccc35)CCCC4)nn2)ccn1)Nc1cccc2c1C1CCCCN1C2=O (racemic)
Activity [1]: 13%
Activity [2]: 92%
Activity [3]: 25%
Activity [4]: 44%
Activity [5]: 79%
Activity [6]: 35%
Activity [7]: 0.2%
Activity [8]: 80%
Activity [9]: 100%
Activity [10]: 40%
Activity [11]: 93%
Activity [12]: 100%
Activity [13]: 100%
Activity [14]: 21%
Activity [15]: 0.35%
Activity [16]: 100%
Activity [17]: 99%
Activity [18]: 51%
Activity [19]: 25%
Activity [20]: 1.7%
Activity [21]: 100%
Activity [22]: 82%
Activity [23]: 66%
Activity [24]: 100%

Reference: ChEMBL document CHEMBL4390652, “Design, biological evaluation and X-ray crystallography of nanomolar multifunctional ligands targeting simultaneously acetylcholinesterase and glycogen synthase kinase-3” (Eur J Med Chem, 2019)
